One data set deals with T1, saccharase (Sus scrofa, UniProt P56729).
T1 construct: sucrase subunit of the sucrase-isomaltase complex hydrolyses sucrose
Kind of data set: In vitro saccharase test. The note with it: for Saccharase Inhibition: Table II; for Saccharase Inhibition In Vitro: Table IV; for saccharase inhibiting activity of isolated product: product of the Examples. The class given is biochemical, pig. As to the method:
One saccharase inhibitor unit (SIU) is defined as the amount of inhibitor which inhibits two saccharase units to the extent of 50%. One saccharase unit (SU) is the amount of enzyme which under the test conditions specified splits 1 μmol of sucrose to glucose and fructose per minute. The μmols of glucose formed are determined quantitatively by means of the glucose oxidase reaction under conditions under which a further splitting of the sucrose by the saccharase no longer takes place. To carry out the test, 0.05 ml of solubilized saccharase [from the mucous membrane of the small intestine of the pig, according to B. Borgastrom, A. Dahlquist, Acta Chem. Scand. 12, (1958), page 1,997], diluted with 0.1 M sodium maleate buffer of pH 6.0 to a SU content adjusted to 0.12 SU is mixed with 0-20 μg of inhibitor or 0-20 μl of the solution to be tested and brought up to 0.1 ml with 0.1 M sodium maleate buffer of pH 6.0. The mixture is equilibrated for 10 minutes at 35° C and 0.1 ml of an 0.05 M sucrose solution in 0.1 M sodium maleate buffer of pH 6.0, pre-warmed to 35° C, is then added. The mixture is incubated for 20 minutes at 35° C, the saccharase reaction is stopped by addition of 1 ml of glucose oxidase reagent, and the incubation is continued for a further 30 minutes at 35° C. (The glucose oxidase reagent is prepared by dissolving 2 mg of glucose oxidase, Boehringer, No. 15,423, in 100 ml of 0.565 M tris-HCl buffer of pH 7.0 and subsequently adding 1 ml of detergent solution (2 g of Triton X 100 + 8 g of 95% strength and analytical grade ethanol), 1 ml of dianisidine solution (260 mg of o-dianisidine. 2HCl in 20 ml of H2 O) and 0.5 ml of 0.1% strength aqueous peroxidase solution, Boehringer, No. 15,302). Thereafter, 1 ml of 50% strength H2 SO4 is added and a measurement carried out at 545 nm against a corresponding blank. To evaluate the results, the percentage inhibition of the saccharase employed is calculated and converted to SIU/g of SIU/liter from the 50% inhibition point, using a glucose calibration curve.

A short description of the next data set: Solubility. The class given is physicochemical.
A further data set relates to glucose absorption. The experiment in a line: Effect on glucose absorption in fasting rats. The format is in vivo, rat. As to the method: The produce an alimentary hyperglycemia and hyperinsulinaemia, groups of 6 fasting rats are given (a) 2.5 g of sucrose, (b) 2.5 g of maltose or (c) 1 g of boiled starch orally, in aqueous solution or suspension. Six other rats are given the same carbohydrates in the same amount and a glycoside hydrolase inhibitor in the amount indicated. In addition, six other rats are given an appropriate volume of saline. The blood glucose and the serum insulin are then measured at short intervals of time, in the blood from the retro-orbital venous plexus. Blood glucose determinations are carried out in the Auto-Analyser device (Technicon), according to Hoffmann: J. biol. Chem. 120, 51 (1937), or enzymatically by means of glucose oxidase and o-dianisidine hydrochloride and the serum insulin determinations are carried out according to the method of Hales and Randle: Biochem. J. 88, 137 (1963).

Where “and” joins values, the source holds several entries; their conditions need not be identical. Identical values can stand only once.

T1 sequence (P56729 with tags, fused parts or gaps): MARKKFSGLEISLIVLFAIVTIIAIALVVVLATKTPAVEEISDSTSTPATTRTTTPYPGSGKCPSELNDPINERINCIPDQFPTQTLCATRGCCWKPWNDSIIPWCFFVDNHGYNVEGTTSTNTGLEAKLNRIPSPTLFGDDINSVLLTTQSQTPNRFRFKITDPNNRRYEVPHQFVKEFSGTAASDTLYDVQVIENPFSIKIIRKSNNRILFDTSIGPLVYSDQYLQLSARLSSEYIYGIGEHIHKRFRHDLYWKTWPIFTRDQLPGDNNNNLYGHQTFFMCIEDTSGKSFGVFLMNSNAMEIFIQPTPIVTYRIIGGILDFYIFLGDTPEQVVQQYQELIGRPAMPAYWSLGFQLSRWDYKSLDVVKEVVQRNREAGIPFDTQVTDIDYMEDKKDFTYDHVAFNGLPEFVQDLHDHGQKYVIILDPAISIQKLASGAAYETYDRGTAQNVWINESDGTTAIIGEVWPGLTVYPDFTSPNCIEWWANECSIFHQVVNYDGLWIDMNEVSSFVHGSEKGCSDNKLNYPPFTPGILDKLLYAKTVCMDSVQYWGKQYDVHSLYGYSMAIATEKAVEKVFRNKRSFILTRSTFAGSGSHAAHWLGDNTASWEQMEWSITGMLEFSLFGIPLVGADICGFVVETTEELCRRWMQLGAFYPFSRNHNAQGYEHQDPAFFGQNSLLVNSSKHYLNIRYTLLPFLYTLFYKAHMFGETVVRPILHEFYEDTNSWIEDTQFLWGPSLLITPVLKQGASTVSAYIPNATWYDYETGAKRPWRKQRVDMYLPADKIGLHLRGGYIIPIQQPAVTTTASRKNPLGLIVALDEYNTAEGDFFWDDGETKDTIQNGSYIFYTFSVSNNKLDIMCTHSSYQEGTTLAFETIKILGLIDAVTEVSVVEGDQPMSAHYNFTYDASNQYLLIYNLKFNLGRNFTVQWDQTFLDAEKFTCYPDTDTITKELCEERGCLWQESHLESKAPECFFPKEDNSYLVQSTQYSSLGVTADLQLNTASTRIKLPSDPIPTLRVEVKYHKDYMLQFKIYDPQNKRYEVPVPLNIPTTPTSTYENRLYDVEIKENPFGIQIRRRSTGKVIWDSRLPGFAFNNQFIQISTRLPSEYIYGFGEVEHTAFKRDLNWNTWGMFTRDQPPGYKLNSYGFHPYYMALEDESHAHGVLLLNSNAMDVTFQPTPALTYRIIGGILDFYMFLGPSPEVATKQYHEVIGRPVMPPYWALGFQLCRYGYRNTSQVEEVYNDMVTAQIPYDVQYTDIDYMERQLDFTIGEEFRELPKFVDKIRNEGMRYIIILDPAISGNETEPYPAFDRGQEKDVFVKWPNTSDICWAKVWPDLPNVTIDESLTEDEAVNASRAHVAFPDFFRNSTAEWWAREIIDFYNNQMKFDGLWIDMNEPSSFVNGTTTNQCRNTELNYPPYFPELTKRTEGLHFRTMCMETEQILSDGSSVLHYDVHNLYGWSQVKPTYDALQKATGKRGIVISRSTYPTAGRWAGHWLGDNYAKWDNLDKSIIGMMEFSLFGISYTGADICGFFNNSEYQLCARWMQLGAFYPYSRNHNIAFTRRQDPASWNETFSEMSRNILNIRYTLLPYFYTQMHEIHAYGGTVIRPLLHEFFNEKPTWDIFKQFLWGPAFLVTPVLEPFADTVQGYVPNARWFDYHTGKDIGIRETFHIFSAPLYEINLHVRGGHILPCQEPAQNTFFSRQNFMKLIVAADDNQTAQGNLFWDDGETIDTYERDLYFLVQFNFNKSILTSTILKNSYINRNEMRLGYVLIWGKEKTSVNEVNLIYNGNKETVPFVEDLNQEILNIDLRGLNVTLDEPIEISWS

Turning to `C[C@H]1O[C@H](O[C@H]2[C@H](O)[C@@H](O)[C@@H](O[C@H]3[C@H](O)[C@@H](O)C(O)O[C@@H]3CO)O[C@@H]2CO)[C@H](O)[C@@H](O)[C@@H]1N[C@H]1C=C(CO)[C@@H](O[C@H]2O[C@H](CO)[C@@H](O)[C@H](O)[C@H]2O)[C@H](O)[C@H]1O` (stereo partly drawn) [Formula V, O-{4,6-bisdesoxy-4-[1 S-(1,4,6/5)-4,5,6-trihydroxy-3-hydroxymethyl-4-O-α-D-glucopyranosyl-(1→4)-cyclohex-2-en-1-ylamino]-α-D-glycopyranosyl}-(1→4)-O-α-D-glucopyranosyl-(1→4)-D-glucopyranose], at saccharase (in vitro), the “Saccharase Inhibition” value was 21,000 SIU/g and the “Saccharase Inhibition In Vitro” value was 21 SIU/mg. Besides, the “saccharase inhibiting activity of isolated product” value (from here on “saccharase inhibiting activity”) at saccharase is listed as 21,000 SIU/g.

Turning to `C[C@H]1O[C@H](O[C@H]2[C@H](O)[C@@H](O)[C@@H](O[C@H]3[C@H](O)[C@@H](O)C(O)O[C@@H]3CO)O[C@@H]2CO)[C@H](O)[C@@H](O)[C@@H]1N[C@H]1C=C(CO)[C@@H](O)[C@H](O)[C@H]1O` (stereo partly drawn) [Formula IIIB, O-{4,6-bisdesoxy-4-[1 S-(1,4,6/5)-4,5,6-trihydroxy-3-hydroxymethylcyclohex-2-en-1-ylamino]-α-D-glucopyranosyl}-(1→4)-O-α-D-glucopyranosyl-(1→4)-D-glucopyranose], the water solubility entry in “Solubility” is recorded as “readily water-soluble”. In addition, the “Saccharase inhibition, in words” value on saccharase (in vitro) is “most pronounced”. In addition, at saccharase (in vitro), the “Saccharase Inhibition” value was 68,000 SIU/g. Besides, the “Saccharase Inhibition In Vitro” value at saccharase (in vitro) stood at 68 SIU/mg. Also, the “saccharase inhibiting activity” value was 50,000 SIU/g and 60,000 SIU/g at saccharase (listed as 2 glucose units); 68,000 SIU/g on saccharase (listed as 2 units); 65,000 SIU/g on saccharase (listed as two glucose units). In addition, the “Blood Glucose (Mean ± SD)” value with glucose absorption (glucose + 30 mg, 15 Min.) is 135 ± 13 mg%; with glucose absorption (glucose + 30 mg, 30 Min.), 128 ± 5.5 mg%; in the data set with glucose absorption (glucose + 30 mg, 45 Min.) it was 132 ± 7.3 mg%; in the data set on glucose absorption (glucose + 60 mg, 15 Min.) it was 125 ± 13 mg%; in the data set on glucose absorption (glucose + 60 mg, 30 Min.), 118 ± 2.9 mg%; in the data set on glucose absorption (glucose + 60 mg, 45 Min.), 130 ± 9.0 mg%.

For `C[C@H]1O[C@H](O[C@H]2[C@H](O)[C@@H](O)C(O)O[C@@H]2CO)[C@H](O)[C@@H](O)[C@@H]1N[C@H]1C=C(CO)[C@@H](O)[C@H](O)[C@H]1O` (stereo partly drawn) [Formula IIB, O-{4,6-bisdesoxy-4-[1 S-(1,4,6/5)-4,5,6-trihydroxy-3-hydroxymethylcyclohex-2-en-1-ylamino]-α-D-glucopyranosyl}-(1→4)-D-glucopyranose], the solubility result in the data set “Solubility” (water, dimethylformamide, dimethylsulfoxide, methanol and hot ethanol) was “good solubility”. Also, the “Saccharase inhibition relative to the derivative having two units” value on saccharase (in vitro, in words) is “only half as much”. Further, at saccharase (in vitro), the “Saccharase Inhibition” value is given as 30,000 SIU/g and the “Saccharase Inhibition In Vitro” value came to 30 SIU/mg. Further, on saccharase (listed as one glucose unit), the “saccharase inhibiting activity” value was 30,000 SIU/g and 35,000 SIU/g.
